Patent publication US20080004290A1, “Anti-Cancer Agents” (THE UNIVERSITY OF QUEENSLAND, priority 2003, published 2008)
Where two headings read alike, the source gives them in different places.

How the values were obtained:
Type in all cases: cell-based, human
PC-3 cells = assay: Cell survival assay (SRB); conditions: for IC50: Homo sapiens, PC-3, read-out: Cytoselectivities (nM) PC-3; for Selectivity Index PC-3: Table 13, S enantiomer, IC50(NFF)/IC50(cancer cell line)
Method: (§1) Cell Lines and Culture Medium. All cell lines used in this study have been described previously (Parsons et al., 1986; Todaro et al., 1980; Glenn et al., 2004). All cell lines were cultured in 10% heat-inactivated foetal calf serum (CSL, Australia) in RPMI 1640 medium supplemented with 100 U/mL penicillin, 100 μg/mL streptomycin, and 3 mM HEPES at 5% CO2, 99% humidity at 37° C. Primary human fibroblasts were obtained from neonatal foreskins and cultured in the above medium. Routine mycoplasma tests were performed using Hoechst stain^i and were always negative.
(§2) Cell Survival Assay. Cells were plated into 96-well microtitre plates at 5×10^3 cells/well, and allowed to adhere overnight. Test compounds were added to culture medium at the indicated concentrations, and plates incubated in the above conditions for 24 hours. Following this incubation period, compounds and media were removed, and replaced with fresh culture medium. Cells were then grown for a further 72 hours before assay using sulforhodamine B (SRB; Sigma, St. Louis, Mo.) as previously described. Briefly, the culture medium was removed from the 96-well microtitre plates and the plates washed twice with phosphate buffered saline (PBS), before the cells were fixed with methylated spirits for 15 minutes. The plates were then rinsed with tap water and the fixed cells stained with 50 μL/well of SRB solution (0.4% sulforhodamine B (w/v) in 1% (v/v) acetic acid) over a period of 1 hour. The SRB solution was then removed from the wells and the plates rapidly washed two times with 1% (v/v) acetic acid. Protein bound dye was then solubilised with the addition of 100 μL of 10 mM unbuffered Tris, and incubated for 15 min at 25° C. Plates were then read at 564 nm on a VERSA max tunable microplate reader (Molecular Devices, Sunnyvale, Calif.).

Col208 cells = assay: Cell survival assay (SRB); conditions: for IC50: Homo sapiens, Col208 (colon), read-out: Cytoselectivities (nM) Col208; for Selectivity Index Col208: Table 13, S enantiomer, IC50(NFF)/IC50(cancer cell line)
Method: as §1, §2

H520 cells = assay: Cell survival assay (SRB); conditions: for IC50: Homo sapiens, NCI-H520, read-out: Cytoselectivities (nM) H520; for Selectivity Index H520: Table 13, S enantiomer, IC50(NFF)/IC50(cancer cell line)
Method: as §1, §2

T-47D cells = assay: Cell survival assay (SRB); conditions: for IC50: Homo sapiens, T47D, read-out: Cytoselectivities (nM) T-47D; for Selectivity Index T-47D: Table 13, S enantiomer, IC50(NFF)/IC50(cancer cell line)
Method: as §1, §2

HOP62 cells = assay: Cell survival assay (SRB); conditions: for IC50: Homo sapiens, HOP-62, HOP62 (lung), read-out: Cytoselectivities (nM) HOP62; for Selectivity Index HOP62: Table 13, S enantiomer, IC50(NFF)/IC50(cancer cell line)
Method: as §1, §2

HT29 cells = assay: Cell survival assay (SRB); conditions: for IC50: Homo sapiens, HT-29, HT29 (colon), read-out: Cytoselectivities (nM) HT29; for Selectivity Index HT29: Table 13, S enantiomer, IC50(NFF)/IC50(cancer cell line)
Method: as §1, §2

A549 cells = assay: Cell survival assay (SRB); conditions: for IC50: Homo sapiens, A549 (lung), read-out: Cytoselectivities (nM) A549; for Selectivity Index A549: Table 13, S enantiomer, IC50(NFF)/IC50(cancer cell line)
Method: as §1, §2

SK-MEL-5 cells = assay: Cell survival assay (SRB); conditions: for IC50: Homo sapiens, SK-MEL-5, read-out: Cytoselectivities (nM) SK-MEL-5; for Selectivity Index SK-MEL-5: Table 13, S enantiomer, IC50(NFF)/IC50(cancer cell line)
Method: as §1, §2

[1] = tested on: NFF, neonatal foreskin fibroblasts; assay: Cell survival assay (clonogenic survival, SRB), normal cells; conditions: Homo sapiens, Fibroblast, NFF normal fibroblasts; 24 h with compound, further 72 h growth, SRB; read-out: IC50 (uM) NFF
Procedure, shortened: (§3)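 Cells (5×10^3/well, RPMI 1640 with 10% FCS) treated 24 h with compound at 0.01-10 μg/mL, then washed and grown 72 h drug-free at 37 °C, 5% CO2. Survival read by SRB staining after methylated-spirit fixation, absorbance 564 nm.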

SkMel28 melanoma cells = assay: Cell survival assay (SRB); conditions: for IC50: Homo sapiens, SK-MEL-28 (melanoma), read-out: Cytoselectivities (nM) SK-MEL-28; for Selectivity Index SK-MEL-28: Table 13, S enantiomer, IC50(NFF)/IC50(cancer cell line)
Method: as §1, §2
(§4) For comparison their results are also shown for MM96L and NFF cell lines.

JAM ovarian cancer cells = assay: Cell survival assay (SRB); conditions: for IC50: Homo sapiens, read-out: Cytoselectivities (nM) JAM; for Selectivity Index JAM: Table 13, S enantiomer, IC50(NFF)/IC50(cancer cell line)
Method: as §1, §2, §4

[2] = tested on: MCF-7 breast cancer cells; assay: Cell survival assay (SRB); conditions: for IC50: Homo sapiens, MCF7, MCF-7 (breast), read-out: Cytoselectivities (nM) MCF-7; for Selectivity Index MCF-7: Table 13, S enantiomer, IC50(NFF)/IC50(cancer cell line)
Method: as §1, §2, §4

[3] = tested on: DU145 prostate cancer cells; assay: Cell survival assay (SRB); conditions: for IC50: Homo sapiens, DU-145, DU145 (prostate), read-out: Cytoselectivities (nM) DU145; for Selectivity Index DU145: Table 13, S enantiomer, IC50(NFF)/IC50(cancer cell line)
Method: as §1, §2, §4

[4] = tested on: CI-80-13S ovarian cancer cells; assay: Cell survival assay (SRB); conditions: for IC50: Homo sapiens, read-out: Cytoselectivities (nM) CI80-13S; for Selectivity Index CI80-13S: Table 13, S enantiomer, IC50(NFF)/IC50(cancer cell line)
Method: as §1, §2, §4

MM96L melanoma cells = assay: Cell survival assay (clonogenic survival, SRB); conditions: for IC50: Homo sapiens, MM96L; for SI (Selectivity Index = IC50 (NFF)/IC50 (MM96L)): NFF vs MM96L; for Selectivity Index MM96L: Table 13, S enantiomer, IC50(NFF)/IC50(cancer cell line)
Procedure, shortened: as §3

[5] = MM96L melanoma, 24 h with compound, further 72 h growth, SRB, read-out: IC50 (uM) MM96L
[6] = Table 12, read-out: Cytoselectivities (nM) MM96L
[7] = most preferred compounds, exemplary examples, read-out: potency of IC50 against the MM96 melanoma cells

Compound	IC50 (PC-3 cells) [nM]	Selectivity Index PC-3 (PC-3 cells)	IC50 (Col208 cells) [nM]	Selectivity Index Col208 (Col208 cells)	IC50 (H520 cells) [nM]	Selectivity Index H520 (H520 cells)	IC50 (T-47D cells) [nM]	Selectivity Index T-47D (T-47D cells)	IC50 (HOP62 cells) [nM]	Selectivity Index HOP62 (HOP62 cells)	IC50 (HT29 cells) [nM]	Selectivity Index HT29 (HT29 cells)	IC50 (A549 cells) [nM]	Selectivity Index A549 (A549 cells)	IC50 (SK-MEL-5 cells) [nM]	Selectivity Index SK-MEL-5 (SK-MEL-5 cells)	IC50 [1] [µM]	IC50 (SkMel28 melanoma cells) [nM]	Selectivity Index SK-MEL-28 (SkMel28 melanoma cells)	IC50 (JAM ovarian cancer cells) [nM]	further results
CN(C)c1ccc(C(=O)N[C@@H](CCCCCC(=O)NO)C(=O)Nc2cccc3cccnc23)cc1 [Example 126]	220	3	223	1.5	63	9	45	13	137	4	178	3	148	4	32	18	0.57 ± 0.07	73	8	85	Selectivity Index JAM (JAM ovarian cancer cells): 7; IC50 [2]: 35 nM; Selectivity Index MCF-7 [2]: 16; IC50 [3]: 61 nM; Selectivity Index DU145 [3]: 9; IC50 [4]: 65 nM; Selectivity Index CI80-13S [4]: 9; IC50 (MM96L melanoma cells; [5]): 0.02 ± 0.01 µM; IC50 (MM96L melanoma cells; [6]): 0.051 µM; IC50 (MM96L melanoma cells; [7]): ≤ 0.5 µM; SI (Selectivity Index = IC50 (NFF)/IC50 (MM96L)) (MM96L melanoma cells): 28; Selectivity Index MM96L (MM96L melanoma cells): 11
O=C(CCCCC[C@H](NC(=O)OCc1ccccc1)C(=O)Nc1cccc2cccnc12)NO [Example 148]	528	0.9	122	4	118	4	93	5	226	2	334	1.4	248	2	70	6	0.452	146	3	194	Selectivity Index JAM (JAM ovarian cancer cells): 2; IC50 [2]: 122 nM; Selectivity Index MCF-7 [2]: 4; IC50 [3]: 131 nM; Selectivity Index DU145 [3]: 3; IC50 [4]: 124 nM; Selectivity Index CI80-13S [4]: 4; IC50 (MM96L melanoma cells; [5]): 0.043 µM; IC50 (MM96L melanoma cells; [6]): 0.108 µM; IC50 (MM96L melanoma cells; [7]): ≤ 0.5 µM; SI (Selectivity Index = IC50 (NFF)/IC50 (MM96L)) (MM96L melanoma cells): 10.5; Selectivity Index MM96L (MM96L melanoma cells): 4
O=C(/C=C/c1ccccc1)N[C@@H](CCCCCC(=O)NO)C(=O)Nc1cccc2cccnc12 [Example 146]	109	11	141	9	27	46	20	63	65	19	99	13	73	17	29	43	1.24	37	34	49	Selectivity Index JAM (JAM ovarian cancer cells): 25; IC50 [2]: 17 nM; Selectivity Index MCF-7 [2]: 71; IC50 [3]: 30 nM; Selectivity Index DU145 [3]: 41; IC50 [4]: 28 nM; Selectivity Index CI80-13S [4]: 44; IC50 (MM96L melanoma cells; [5]): 0.021 µM; IC50 (MM96L melanoma cells; [6]): 0.02 µM; IC50 (MM96L melanoma cells; [7]): ≤ 0.5 µM; SI (Selectivity Index = IC50 (NFF)/IC50 (MM96L)) (MM96L melanoma cells): 58.9; Selectivity Index MM96L (MM96L melanoma cells): 63
O=C(CCCCC[C@H](NC(=O)c1cc2ccccc2[nH]1)C(=O)Nc1cccc2cccnc12)NO [Example 132]	148	2	102	3	26	13	19	18	63	5	79	4	69	5	18	18	0.337	33	10	48	Selectivity Index JAM (JAM ovarian cancer cells): 7; IC50 [2]: 19 nM; Selectivity Index MCF-7 [2]: 18; IC50 [3]: 22 nM; Selectivity Index DU145 [3]: 15; IC50 [4]: 20 nM; Selectivity Index CI80-13S [4]: 17; IC50 (MM96L melanoma cells; [5]): 0.021 µM; IC50 (MM96L melanoma cells; [6]): 0.018 µM; IC50 (MM96L melanoma cells; [7]): ≤ 0.5 µM; SI (Selectivity Index = IC50 (NFF)/IC50 (MM96L)) (MM96L melanoma cells): 16; Selectivity Index MM96L (MM96L melanoma cells): 19
